Measured values taken from patent US11414406B2, “Antagonists of the muscarinic acetylcholine receptor M4” (Vanderbilt University, priority 2018, dated 2022).

Molecular target: T1, Human M4 (Homo sapiens, UniProt P08173)
T1 construct: expressed in transfected cells
T1 sequence (P08173 1-479): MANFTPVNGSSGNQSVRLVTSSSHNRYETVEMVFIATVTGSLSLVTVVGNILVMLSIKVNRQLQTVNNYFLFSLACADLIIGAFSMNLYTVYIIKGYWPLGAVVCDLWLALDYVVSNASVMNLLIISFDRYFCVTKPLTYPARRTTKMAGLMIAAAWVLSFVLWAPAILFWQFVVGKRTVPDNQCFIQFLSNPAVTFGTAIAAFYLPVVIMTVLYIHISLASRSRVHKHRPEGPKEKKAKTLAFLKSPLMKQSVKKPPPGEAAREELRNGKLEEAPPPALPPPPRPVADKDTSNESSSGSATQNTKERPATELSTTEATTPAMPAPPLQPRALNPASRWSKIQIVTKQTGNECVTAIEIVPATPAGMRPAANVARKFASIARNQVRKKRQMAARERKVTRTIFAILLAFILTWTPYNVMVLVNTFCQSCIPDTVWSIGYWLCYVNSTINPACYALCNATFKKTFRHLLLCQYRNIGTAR
Experiment: mAChR M4 cell-based functional assay (calcium flux, decrease of EC80 acetylcholine response)
Conditions: M4/Gqi5/CHO-K1 cells; for remaining activity at 30 µM: % ACh maximum at 30 μM, read-out: Emin (% ACh maximum at 30 μM); for IC50: decrease of response to EC80 acetylcholine
Experimental: Human M4 cDNA, along with the chimeric G protein Gqi5, were transfected into Chinese hamster ovary (CHO-K1) cells purchased from the American Type Culture Collection using Lipofectamine2000. M4/Gqi5/CHO cells were grown in Ham's F-12 medium containing 10% heat-inactivated fetal bovine serum (FBS), 20 mM HEPES, 500 μg/mL G418 sulfate, and 200 μg/mL Hygromycin B.
For high throughput measurement of agonist-evoked increases in intracellular calcium, CHO-K1 cells stably expressing muscarinic receptors were plated in growth medium lacking G418 and hygromycin at 15,000 cells/20 μL/well in Greiner 384-well black-walled, tissue culture (TC)-treated, clear-bottom plates (VWR). Cells were incubated overnight at 37° C. and 5% CO2. The next day, cells were washed using an ELX 405 (BioTek) with assay buffer; the final volume was then aspirated to 20 μL. Next, 20 μL of a 2.3 μM stock of Fluo-4/acetoxymethyl ester (Invitrogen, Carlsbad, Calif.), prepared as a 2.3 mM stock in DMSO and mixed in a 1:1 ratio with 10% (w/v) Pluronic F-127 and diluted in assay buffer, was added to the wells and the cell plates were incubated for 50 min at 37° C. and 5% CO2. Dye was removed by washing with the ELX 405 and the final volume was aspirated to 20 μL. Compound master plates were formatted in a 10 point concentration-response curve (CRC) format (1:3 dilutions) in 100% DMSO with a starting concentration of 10 or 1 mM using a BRAVO liquid handler (Agilent). Test compound CRCs were then transferred to daughter plates (240 nL) using the Echo acoustic plate reformatter (Labcyte, Sunnyvale, Calif.) and then diluted into assay buffer (40 μL) to a 2× stock using a Thermo Fisher Combi (Thermo Fisher Scientific, Waltham, Mass.).
Calcium flux was measured using the Functional Drug Screening System (FDSS) 6000 or 7000 (Hamamatsu Corporation, Tokyo, Japan) as an increase in the fluorescent static ratio. Compounds were applied to cells (20 μL, 2×) using the automated system of the FDSS at 2 seconds into the protocol and the data were collected at 1 Hz. At 143 s, 10 μL of an EC20 concentration of the muscarinic receptor agonist acetylcholine was added (5×), followed by the addition of 12 μL of an EC80 concentration of acetylcholine at the 268 s time point (5×). Agonist activity was analyzed as a concentration-dependent increase in calcium mobilization upon compound addition. Positive allosteric modulator activity was analyzed as a concentration-dependent increase in the EC20 acetylcholine response. Antagonist activity was analyzed as a concentration-dependent decrease in the EC80 acetylcholine response; for the purposes of the tables herein, an IC50 (inhibitory concentration 50) was calculated as a concentration-dependent decrease of the response elicited by an EC80 concentration of acetylcholine. Concentration-response curves were generated using a four-parameter logistical equation in XLFit curve fitting software (HMS, Bridgewater, N.J.) for Excel (Microsoft, Redmond, Wash.) or Prism (GraphPad Software, Inc., San Diego, Calif.) or the Dotmatics software platform (Dotmatics, Bishop's Stortford, UK).
Compounds were synthesized as described above. Activity (IC50 and Emin) was determined in the inAChR M4 cell-based functional assay as described above and the data are shown in Table 2. The compound numbers correspond to the compound numbers used in Examples 1 and 2 and Tables 1 and 2.

Structure (SMILES)	remaining activity at 30 µM [%]	IC50 [µM]
Fc1ccc(Cl)c(-c2ccc(N[C@H]3[C@@H]4CN(Cc5ccccn5)C[C@@H]43)nn2)c1 [Compound 24, (1R,5S,6s)-N-[6-(2-chloro-5-fluoro-phenyl)pyridazin-3-yl]-3-(2-pyridylmethyl)-3-azabicyclo[3.1.0]hexan-6-amine]	16	6.77
Cc1nn(C)cc1-c1ccc(N[C@H]2[C@@H]3CN(CC(C)C(C)(C)C)C[C@@H]32)nn1 (stereo partly drawn) [Compound 3, (1R,5S,6s)-N-[6-(1,3-dimethylpyrazol-4-yl)pyridazin-3-yl]-3-(2,3,3-trimethylbutyl)-3-azabicyclo[3.1.0]hexan-6-amme]	24	–
CC(C)(C)CCN1C[C@@H]2[C@H](C1)[C@H]2NCc1ccc(-c2cc(F)ccc2Cl)nn1 [Compound 5, (1R,5S,6s)-N-((6-(2-chloro-5-fluoro-phenyl)pyridazin-3-yl)methyl)-3-(3,3-dimethylbutyl)-3-azabicyclo[3.1.0]hexan-6-amine]	20.4	–
Cc1cc(CN2C[C@@H]3[C@H](C2)[C@H]3Nc2ccc(-c3cc(F)ccc3Cl)nn2)nn1C [Compound 26, (1R,5S,6s)-N-[6-(2-chloro-5-fluoro-phenyl)pyridazin-3-yl]-3-[(1,5-dimethylpyrazol-3-yl)methyl]-3-azabicyclo[3.1.0]hexan-6-amine]	13	4.76
Fc1ccc(F)c(-c2ccc(N[C@H]3[C@@H]4CN(Cc5ccccc5F)C[C@@H]43)nn2)c1 [Compound 33, (1R,5S,6s)-N-[6-(2,5-difluorophenyl)pyridazin-3-yl]-3-[(2-fluorophenyl)methyl]-3-azabicyclo[3.1.0]hexan-6-amine]	39	–

Other lines, results leading:

remaining activity at 30 µM [%]	IC50 [µM]	Structure (SMILES)
37	–	Fc1ccc(-c2ccc(N[C@H]3[C@@H]4CN(CC5CCOCC5)C[C@@H]43)nn2)cc1 [Compound 10, (1R,5S,6s)-N-[6-(4-fluorophenyl)pyridazin-3-yl]-3-(tetrahydropyran-4-ylmethyl)-3-azabicyclo[3.1.0]hexan-6-amine]
11	2.96	Clc1ccccc1-c1ccc(N[C@H]2[C@@H]3CN(CC4CCOCC4)C[C@@H]32)nn1 [Compound 11, (1S,5R,6s)-N-[6-(2-chlorophenyl)pyridazin-3-yl]-3-(tetrahydropyran-4-ylmethyl)-3-azabicyclo[3.1.0]hexan-6-amine]
17.8	–	Fc1ccc(Cl)c(-c2ccc(CN[C@H]3[C@@H]4CN(CC5CCCCC5)C[C@@H]43)nn2)c1 [Compound 6, (1R,5S,6s)-N-((6-(2-chloro-5-fluoro-phenyl)pyridazin-3-yl)methyl)-3-(cyclohexylmethyl)-3-azabicyclo[3.1.0]hexan-6-amine]
28	–	c1ccc(-c2ccc(N[C@H]3[C@@H]4CN(CC5CCOCC5)C[C@@H]43)nn2)cc1 [Compound 28, (1R,5S,6s)-N-(6-phenylpyridazin-3yl)-3-(tetrahydropyran-4-ylmethyl)-3-azabicyclo[3.1.0]hexan-6-amine]
15	–	c1ccc2cc(-c3ccc(N[C@H]4[C@@H]5CN(CC6CCOCC6)C[C@@H]54)nn3)ccc2c1 [Compound 29, (1R,5S,6s)-N-[6-(2-naphthyl)pyridazin-3-yl]-3-(tetrahydropyran-4-ylmethyl)-3-azabicyclo[3.1.0]hexan-6-amine]
48	–	FC(F)(F)c1ccc(-c2ccc(N[C@H]3[C@@H]4CN(CC5CCOCC5)C[C@@H]43)nn2)cn1 [Compound 20, (1R,5S,6s)-3-(tetrahydropyran-4-ylmethyl)-N-[6-[6-(trifluoromethyl)-3-pyridyl]pyridazin-3-yl]-3-azabicyclo[3.1.0]hexan-6-amine]
8	1.85	Fc1cccc(-c2ccc(N[C@H]3[C@@H]4CN(CC5CCOCC5)C[C@@H]43)nn2)c1Cl [Compound 13, (1R,5S,6s)-N-[6-(2-chloro-3-fluoro-phenyl)pyridazin-3-yl]-3-(tetrahydropyran-4-ylmethyl)-3-azabicyclo[3.1.0]hexan-6-amine]
